Assay results published in patent publication EP4039094A1, “NOVEL ANTIFUNGAL COMPOUNDS” (Max-Planck-Gesellschaft zur Förderung der Wissenschaften …, priority 2021, dated 2022).
pIC50: −log10 of the molar value.

Key:
[1] = target: T1, Stp1/Stp4/Stp3 subcomplex (Mycosarcoma maydis, UniProt A0A0D1C5E3+A0A0D1CU07+A0A0D1EAN2); experiment: Alamar Blue viability assay in S. cerevisiae 2-hybrid strain NL73 (viability depends on Stp complex formation); assay type: cell-based, U. maydis; details: for activity in the Alamar Blue assay with NL73: result in words
T1 sequence (A0A0D1CU07 29-515): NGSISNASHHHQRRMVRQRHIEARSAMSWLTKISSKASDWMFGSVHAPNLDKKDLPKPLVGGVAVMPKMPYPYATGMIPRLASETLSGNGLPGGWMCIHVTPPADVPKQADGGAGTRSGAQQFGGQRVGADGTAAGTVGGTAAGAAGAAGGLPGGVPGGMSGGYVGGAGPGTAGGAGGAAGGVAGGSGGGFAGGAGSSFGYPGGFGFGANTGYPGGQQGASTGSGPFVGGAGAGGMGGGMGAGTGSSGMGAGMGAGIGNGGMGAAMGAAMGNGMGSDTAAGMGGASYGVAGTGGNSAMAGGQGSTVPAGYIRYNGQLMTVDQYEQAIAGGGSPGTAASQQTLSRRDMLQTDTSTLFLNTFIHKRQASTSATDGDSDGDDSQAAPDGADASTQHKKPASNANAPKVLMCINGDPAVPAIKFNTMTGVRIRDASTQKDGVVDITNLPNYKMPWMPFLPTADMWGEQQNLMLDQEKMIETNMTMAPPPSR
T1 sequence (A0A0D1C5E3 24-129): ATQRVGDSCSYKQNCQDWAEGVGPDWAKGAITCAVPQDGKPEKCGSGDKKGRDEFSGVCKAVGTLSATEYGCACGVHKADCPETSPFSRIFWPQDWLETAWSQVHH
T1 sequence (A0A0D1EAN2 25-327): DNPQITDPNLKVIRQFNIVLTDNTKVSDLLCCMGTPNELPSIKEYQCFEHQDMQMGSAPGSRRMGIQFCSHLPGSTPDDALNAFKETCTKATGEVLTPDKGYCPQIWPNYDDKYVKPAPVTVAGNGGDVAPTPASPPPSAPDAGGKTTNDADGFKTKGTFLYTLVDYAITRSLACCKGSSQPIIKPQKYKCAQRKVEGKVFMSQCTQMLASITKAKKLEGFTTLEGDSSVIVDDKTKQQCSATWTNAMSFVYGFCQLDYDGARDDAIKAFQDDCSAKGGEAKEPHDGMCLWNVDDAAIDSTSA
From the text: To develop a screening platform based on Stp complex formation, a Saccharomyces cerevisiae 2-hybrid system was used. […] After co-transformation, reporter gene transcription is activated only if the two fusion proteins interact in the yeast nucleus. Moreover, the S. cerevisiae strain AH109 harbours the reporter genes ADE2 and HIS3, which encode for two enzymes that are crucial for adenine (Ade) and histidine (His) biosynthesis and thereby enable nutritional selection as a read-out for the interaction between proteins. In the following experiments, growth on high-stringency synthetic defined (SD) medium (SD -Leu -Trp -Ade -His) was used to identify if the complex members interact between them causing expression of ADE2 and HIS3. Additionally, strains were also grown on low-stringency medium (SD -Leu -Trp) to confirm their viability. […] All experiments were done with three independent transformants to exclude false positives due to spontaneous mutations.
The S. cerevisiae strain AH109 from Clontech (Saint-Germain-en-Laye, France) is auxotrophic for tryptophan, leucine, adenine and histidine. In addition, lacz is under control of the MEL1 UAS to be used as readout for quantitative β-galactosidase assays.
The resulting test strain NL73 (AD-Stp4/BD-Stp1/myc-Stp3) expresses the Stp1/Stp4/Stp3 subcomplex. NL73 carries the following three plasmids: pGBKT7-stp1: pGBKT7 vector expressing proteins fused to the GAL4 DNA binding domain (DNA-BD). pGBKT7 also contains the T7 promoter, a c-Myc epitope tag, and a MCS. The vector carries a Kanamycin resistance gene (Kanr) for selection in E. coli and the TRP1 nutritional marker for selection in yeast. pGAD-stp4: pGADT7 vector expressing proteins fused to a GAL4 activation domain (AD). The GAL4 AD fusion contains an N-terminal nuclear localization signal that targets the protein to the yeast nucleus, and a HA Tag, located between the GAL4 AD and the protein of interest. The vector carries an ampicillin resistance gene (Ampr) for selection in E. coli and a LEU2 nutritional marker for selection in yeast. pYEA-stp3-myc: pYEA vector expressing proteins under the control of the phosphoglycerate kinase promoter. The vector carries an ampicillin resistance gene (Ampr) for selection in E. coli and an ADE2 nutritional marker for selection in yeast. As control strain, NL70 containing empty vectors was generated (AH109Δabc9 pGAD::LEU2 pGBK::TRP1 pYEA::ADE2).
After that, 25 µl of NL73 cell suspension were dispensed into the assay plates using Multidrop Combi (Thermofisher Scientific) giving a final screening concentration of 10 µM. One column of the assay plate was filled with 25 µl of NL70 control strain cell suspension as negative control. Plates were sealed with Breathe-Easy sealing membrane (Sigma, Z380059), lidded and incubated in a humid chamber over night at 30°C and 140 rpm in an HT Multitron Pro (Infors). […] For the viability assay, the alamar Blue HS Cell Viability reagent (Invitrogen, #A50101) was pre-diluted using an equal amount of dVE-H2O and 5 µl of diluted Alamar Blue were added to the screening plates using Multidrop Combi. The plates were sealed again and incubated for 4 h at room temperature, unlidded. […] Screening data was normalized to DMSO-treated NL73 cells (that received DMSO in the same concentration as in samples where compounds dissolved in DMSO were added) being 100% and DMSO-treated NL70 cells representing 0% viability and analyzed with Quattro Software Suite (Quattro Research GmbH).

[2] = target: T1, Stp1/Stp4/Stp3 subcomplex; experiment: Beta-Glo confirmatory assay (β-galactosidase expression) in NL73; assay type: cell-based, U. maydis; details: NL73 strain, Table 5; read-out: B-glo IC50
Method: This system allows luminescence-based quantification of β-galactosidase expression in cells which serves as a readout for promoter activation by interacting complex members Stp1, Stp3 and Stp4. Overnight cultures of NL73 and NL70 strains were harvested as described above. Dilution series of compound stock solution were pre-dispensed into black 384-well assay plates (Corning 4513) using Echo520 Nanoliter dispenser starting from 10 µM with 3-fold dilution over 8 steps. In the viability setup, 15 µl of NL73 cell suspension were dispensed into the assay plates using Multidrop Combi. One column of the assay plate was filled with 15 µl of NL70 cell suspension. In the toxicity setup, 15 µl of NL70 cell suspension in low stringency medium were dispensed into the assay plates with one column being filled with 15 µl of NL70 cell suspension in high stringency medium. Plates were sealed with Breathe-Easy sealing membrane, lidded and incubated in a humid chamber over night at 30°C and 140 rpm in an Infors HT Multitron Pro. After approximately 19 h, plates were centrifuged for 1 min at 500 rpm. 4 µl of Beta-Glo assay solution were added using Multidrop Combi. The plates were sealed again and incubated for 2.5 h at room temperature, unlidded. Luminescence readout was determined on a Spectramax Paradigm detection platform for 0.2 s. Dose response data was analysed with Quattro Software Suite.

[3] = NL73 strain, Table 5, read-out: A-blue IC50

With Cc1ccc(-c2c(-c3ccc(C)cc3)[n+]([O-])c3ccccn23)cc1 [Compound 1-A] the pIC50 [1, 3] was 6.85, the “activity in the Alamar Blue assay with NL73” value [1] was “nanomolar potency” and the pIC50 [2] was 6.12.

Molecule CC(C)n1ncc2cc(NS(=O)(=O)c3cc(F)ccc3F)cnc21 [Compound 1-B] has a pIC50 ([1]; read-out: IC50 in the Alamar Blue viability assay of NL73) of 5.60.

In the case of Cc1ccc(CSc2nc(=O)n(C3CCCC3)c3c2CCC3)cc1 [Compound 1-C], the pIC50 ([1]; inhibitory activity on NL73 viability, Table 6, read-out: IC50) was 6.17 and the “activity in the Alamar Blue assay with NL73” value [1] was “active in the nanomolar range”.

O=[N+]([O-])c1ccc(-c2c(-c3ccccc3)n3ccccc3[n+]2[O-])cc1 [Compound 3-A] was tested, and the pIC50 [1, 3] was 6.60 and the pIC50 [2] was 6.07.

[O-][n+]1c(-c2ccc(C(F)(F)F)cc2)c(-c2ccc(C(F)(F)F)cc2)n2ccccc21 [Compound 2-A] gave a pIC50 [1, 3] of 7.70 and a pIC50 [2] of 6.64.
